Reference: patent US11319299B2, “Substituted carboxamides as inhibitors of WDR5 protein-protein binding” (PROPELLON THERAPEUTICS INC., priority 2016, dated 2022)

target: WDR5 (Homo sapiens (Human), UniProt P61964); assay: Surface Plasmon Resonance (SPR) assay, KD and residence time; assay type: binding; conditions: surface plasmon resonance (SPR) assay; read-out: WDR5 binding affinity (KD)
Experimental: (i) Surface Plasmon Resonance (SPR) Assay
The lifetime of a drug on its target is determined by two rate constants: the association rate constant (kon) and the dissociation rate constant (koff). In principle, the lifetime of the binary drug—target complex is thus extended by a rapid rate of drug binding and/or a slow rate of drug—target complex dissociation. The in vivo lifetime of a drug-target complex is most critically dependent on the value of the koff [Nat. Rev. Drug Discov. […] Drug Discov. […] Drug-target residence time is defined as the reciprocal of koff (τ=1/koff), making the residence time a parameter that is easily measured by routine in vitro assay methods.

Q: `CC1CN(c2cc(F)c(-c3cnc(N4CCOCC4)nc3)cc2NC(=O)c2cc[nH]n2)CCN1C` (stereo in doubt) [Example 193, N-[4-fluoro-5-(2-morpholin-4-ylpyrimidin-5-yl)-2-[(3R)-3,4-dimethylpiperazin-1-yl]phenyl]-1H-pyrazole-3-carboxamide] was tested. Which Kd did it give?
A: 592 nM

Q: For `Cc1nc(C(=O)Nc2cc(-c3cnc(N4CCOCC4)nc3)c(F)cc2N2CCN(C)C(C)C2)cs1` (stereo in doubt) [Example 194, N-[4-fluoro-5-(2-morpholin-4-ylpyrimidin-5-yl)-2-[(3R)-3,4-dimethylpiperazin-1-yl]phenyl]-2-methyl-1,3-thiazole-4-carboxamide], which Kd is on record?
A: 113 nM

Q: How did the Kd turn out when `Cc1ncc(C(=O)Nc2cc(-c3cnc(N4CCOCC4)nc3)c(F)cc2N2CCN(C)C(C)C2)s1` (stereo in doubt) [Example 195, N-[4-fluoro-5-(2-morpholin-4-ylpyrimidin-5-yl)-2-[(3R)-3,4-dimethylpiperazin-1-yl]phenyl]-2-methyl-1,3-thiazole-5-carboxamide] was run?
A: 106 nM

Q: For `CC(=O)Nc1ccc(-c2cc(NC(=O)c3c[nH]c(=O)cc3C(F)(F)F)c(N3CCN(C)C(C)C3)cc2F)cn1` (stereo in doubt) [Example 196, N-[5-(6-acetamidopyridin-3-yl)-4-fluoro-2-[(3R)-3,4-dimethylpiperazin-1-yl]phenyl]-6-oxo-4-(trifluoromethyl)-1H-pyridine-3-carboxamide], which Kd is on record?
A: 0.24 nM

Q: For `CC1CN(c2cc(F)c(-c3ccc(OCC4CC4)nc3)cc2NC(=O)c2c[nH]c(=O)cc2C(F)(F)F)CCN1C` (stereo in doubt) [Example 198, N-[5-[6-(cyclopropylmethoxy)pyridin-3-yl]-4-fluoro-2-[(3R)-3,4-dimethylpiperazin-1-yl]phenyl]-6-oxo-4-(trifluoromethyl)-1H-pyridine-3-carboxamide], which Kd is on record?
A: 0.666 nM

Q: With `Cc1nc(C(F)(F)F)c(C(=O)Nc2cc(-c3cnc(N4CCOCC4)nc3)c(F)cc2N2CCN(C)C(C)C2)s1` (stereo in doubt) [Example 199, N-[4-fluoro-5-(2-morpholin-4-ylpyrimidin-5-yl)-2-[(3R)-3,4-dimethylpiperazin-1-yl]phenyl]-2-methyl-4-(trifluoromethyl)-1,3-thiazole-5-carboxamide] as the molecule, how does the Kd read?
A: 23.4 nM

Q: `CC1CN(c2cc(F)c(-c3cnc(N4CCOCC4)nc3)cc2NC(=O)c2cc(Cl)cc(Cl)c2)CCN1C` (stereo in doubt) [Example 200, 3,5-dichloro-N-[4-fluoro-5-(2-morpholin-4-ylpyrimidin-5-yl)-2-[(3R)-3,4-dimethylpiperazin-1-yl]phenyl]benzamide] was tested. Which Kd did it give?
A: 9.7 nM

Q: Which Kd does the source give for `CC1CN(c2cc(F)c(-c3cccc(CN(C)C4COC4)c3)cc2NC(=O)c2c[nH]c(=O)cc2C(F)(F)F)CCN1C` (stereo in doubt) [Example 214, N-[4-fluoro-5-[3-[[methyl(oxetan-3-yl)amino]methyl]phenyl]-2-[(3R)-3,4-dimethylpiperazin-1-yl]phenyl]-6-oxo-4-(trifluoromethyl)-1H-pyridine-3-carboxamide] here?
A: 2.15 nM

Q: With `CC(=O)Nc1ccc(-c2cc(NC(=O)c3cn(C)c(=O)cc3C(F)F)c(N3CCN(C)C(C)C3)cc2F)cn1` (stereo in doubt) [Example 217, N-[5-(6-acetamidopyridin-3-yl)-4-fluoro-2-[(3R)-3,4-dimethylpiperazin-1-yl]phenyl]-4-(difluoromethyl)-1-methyl-6-oxopyridine-3-carboxamide] as the molecule, how does the Kd read?
A: 4.32 nM

Q: `CC1CN(c2cc(F)c(-c3cnc(C#N)nc3)cc2NC(=O)c2cn(C)c(=O)cc2C(F)F)CCN1C` (stereo in doubt) [Example 218, N-[5-(2-cyanopyrimidin-5-yl)-4-fluoro-2-[(3R)-3,4-dimethylpiperazin-1-yl]phenyl]-4-(difluoromethyl)-1-methyl-6-oxopyridine-3-carboxamide] was tested. Which Kd did it give?
A: 3.18 nM
